From patent US20060165743A1, “Method and device to control and condition the behavior of the varroa destructor mite in a beehive, or in other environment where bees reproduce” (Universita' Degli Studi Di Udine, priority 2002, published 2006)

Legend:
Varroa destructor mite [1] = experiment: Activity test in the beehive (cells with worker bee larvae near to opercolature); type: in vivo; details: 100 ng in 1 μl solvent per cell, 18 hours after treatment
Procedure: (±)-2-hydroxyhexanoic acid was also tested in the beehive, by applying, in the cells with worker bee larvae near to opercolature, a solution of 100 ng of (±)-2-hydroxyhexanoic acid dissolved in 1 μl of a suitable solvent. The infestation of such cells was compared with that of the control cells treated with the solvent alone: the cells used were examined 18 hours after treatment and the Varroa destructor mites present in the treated cells and in the control cells were counted.

Varroa destructor mite [2] = experiment: Activity test in artificial observation plates (treated wells vs solvent control wells, each with a bee larva); type: in vivo; details: for AVERAGE ACTIVITY TREATED: 6 observations in 30 min, 34° C., 75% RH, dark
Procedure: The activity of (±)-2-hydroxyhexanoic acid and of (±)-3-hydroxyhexanoic acid, dissolved in water, was tested in a plate 10 (FIG. 1). Each plate 10 consists of a parallelepiped of sodium-calcium glass with a 70×70 mm square base, and a height of 12 mm, in which four cylindrical wells 12a, 12b, are made, each with a diameter of 7 mm and a depth of 10 mm, similar in size to bee cells. The wells 12a, 12b are equidistant from the center. At the center of the plate 10 a Varroa destructor mite was placed, indicated by the number 11. To delimit the space in which the mite 11 could move, the plates 10 were closed with a cover element 15 consisting of a glass disk joined to a stainless steel spacer ring 17. Two opposite wells 12a of each plate 10 were treated with (±)-2-hydroxyhexanoic acid or with (±)-3-hydroxyhexanoic acid, dissolved in water; the other two wells 12b, on the contrary, were used as controls and were treated only with the solvent. In each individual well 12a, 12b of the plate 10 a bee larva 20 was then placed. The biological activity test on (±)-2-hydroxyhexanoic acid provides a first test during which 1 ng of (±)-2-hydroxyhexanoic acid is tested, a second test during which 10 ng of (±)-2-hydroxyhexanoic acid are tested and a third test during which 100 ng are tested and a fourth test during which 1000 ng are tested. The biological activity test on (±)-3-hydroxyhexanoic acid provides a first test during which 10 ng of (±)-3-hydroxyhexanoic acid are tested, a second test during which 100 ng of (±)-3-hydroxyhexanoic acid are tested, and a third test during which 1000 ng are tested. At the beginning of each test the Varroa destructor mite 11, in this case a female adult, is located at the center of each plate 10 with a thin brush; each plate 10 is then closed and transferred to a thermostatic chamber. Subsequently, the position of the mite 11 was monitored every 5 minutes for a total of 30 minutes, to a total of 6 observations. 20 plates were used for every test, with 4 repetitions, to a total of 80 plates. During the tests the temperature and relative humidity were kept respectively around 34° C. and 75%; the inside of the thermostatic chamber was kept dark. The action of the substances tested on the Varroa destructor mite was evaluated by calculating an average value for the treated wells 12a and the control wells 12b, equal to the average number of times in which the Varroa destructor mite was observed inside one or the other in the 6 observations made in the course of the 30 minutes of each test. The average values thus obtained are representative, with a certain approximation, of the time spent by the mite in the two types of well 12a, 12b. The attractiveness of a substance thus determines higher average values for the treated wells 12a with respect to those of the control wells 12b.

| SMILES | Number of Varroa destructor mites per cell in treated cells vs non-treated cells, in words (Varroa destructor mite [1]) | N. OF VARROA DESTRUCTOR MITE PER CELL TREATED, Average (Varroa destructor mite [1]; average of 5 replications) | AVERAGE ACTIVITY TREATED (Varroa destructor mite [2]; 1 ng in treated wells) | AVERAGE ACTIVITY TREATED (Varroa destructor mite [2]; 10 ng in treated wells) | AVERAGE ACTIVITY TREATED (Varroa destructor mite [2]; 100 ng in treated wells) | AVERAGE ACTIVITY TREATED (Varroa destructor mite [2]; 1000 ng in treated wells) | Activity on / attractiveness to the Varroa destructor mite (infestation of treated wells vs control wells), in words (Varroa destructor mite [2]; dose 10 ng) | Activity on / attractiveness to the Varroa destructor mite (infestation of treated wells vs control wells), in words (Varroa destructor mite [2]; dose 100 ng) |
| --- | --- | --- | --- | --- | --- | --- | --- | --- |
| CCCCC(O)C(=O)O (racemic) [(±)-2-hydroxyhexanoic acid] | significantly greater | 0.60 | 22.3 | 31.8 | 34.7 | 23.0 | active on and attractive to the Varroa destructor mite | active on and attractive to the Varroa destructor mite |
| CCCCCCC(O)C(=O)O (racemic) [(±)-2-hydroxyoctanoic acid, reference compound] |  |  |  |  | 29.5 |  |  | not found to be active |
| CCCC(O)CC(=O)O (racemic) [(±)-3-hydroxyhexanoic acid] |  |  |  | 24.5 | 36.8 | 23.3 |  | active on and attractive to the Varroa destructor mite |
